Assay results reported in patent US20230145406A1, “DIVALENT METAL-CONTAINING BIOMATERIALS AND METHODS OF USE” (University of Oregon, priority 2021, published 2023).

Experiment: Precipitation in filtered concentrated cupric dilactate solution
Type: physicochemical
Conditions: cupric dilactate in water, sonicated, overnight 37° C., 0.45 μm filtered; over 3 weeks
Description: Increased concentrations of cupric dilactate were prepared for use in polymers to achieve higher loading. Excess of cupric dilactate in water (5 g in 10 ml) was prepared and sonicated for 30-120 minutes (15 minutes each x 2-8 times with 10 minutes break between each sonication session) and left overnight at 37° C. The solution obtained was cooled to room temperature and the green liquid containing cupric dilactate was separated from the undissolved cupric dilactate by aspiration and filtering through 0.45 μm syringe filter. […] This solution can be used for loading plugs, for example as described in Examples 1-3.

SMILES: CC(O)C(=O)[O-].CC(O)C(=O)[O-].[Cu+2] (stereo not shown) [cupric dilactate]
- precipitate in the filtrate: No precipitate was observed
